Patent publication US20110039890A1, “4-[2,3-Difluoro-6-(2-fluoro-4-methyl-phenylsulfanyl)-phenyl]-piperidine” (H. LUNDBECK A/S, priority 2007, published 2011)

Experiments:
5-HT2C receptor [1] = target: T1, 5-HT2C receptor (Homo sapiens, UniProt P28335); assay: affinity to human serotonin receptor 5-HT2C; type: binding; settings: calculated from the Cheng-Prusoff equation
T1 sequence (P28335 33-458): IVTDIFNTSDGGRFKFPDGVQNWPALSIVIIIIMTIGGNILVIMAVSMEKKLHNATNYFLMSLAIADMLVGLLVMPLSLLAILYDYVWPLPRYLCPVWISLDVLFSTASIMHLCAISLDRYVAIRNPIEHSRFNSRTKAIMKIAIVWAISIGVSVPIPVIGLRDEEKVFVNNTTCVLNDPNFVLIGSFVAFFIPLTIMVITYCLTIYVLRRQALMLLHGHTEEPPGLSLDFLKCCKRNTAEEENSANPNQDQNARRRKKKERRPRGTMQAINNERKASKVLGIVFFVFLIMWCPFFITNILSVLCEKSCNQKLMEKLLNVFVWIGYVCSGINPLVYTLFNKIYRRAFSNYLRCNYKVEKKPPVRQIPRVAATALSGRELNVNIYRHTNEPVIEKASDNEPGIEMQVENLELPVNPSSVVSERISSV
From the text: (§1) Affinity (Ki, nM) for compound I to human serotonin receptors calculated from the Cheng-Prusoff equation

5-HT2A receptor [2] = target: T2, 5-HT2A receptor (Homo sapiens, UniProt P28223); assay: affinity to human serotonin receptor 5-HT2A; type: binding; settings: calculated from the Cheng-Prusoff equation
From the text: as §1

5-HT2C receptor [3] = target: T1, 5-HT2C receptor; assay: functional assay, 5-HT2C antagonism; type: cell-based; settings: read-out: Kb, antagonist of the 5-HT2C receptor
[4] = target: T3, [3H]-serotonin reuptake (SERT) (Rattus norvegicus, UniProt P31652); assay: inhibition of [3H]-serotonin reuptake in rat synaptosomes; type: biochemical
T3 construct: from tissue
From the text: (§2) IC50 (nM) values Compound I inhibition of the reuptake in rat synaptosomes:
(§3) [^3H]-serotonin: 2.4 [^3H]-noradrenaline: 12

5-HT2A receptor [5] = target: T2, 5-HT2A receptor; assay: functional FLIPR assay, 5-HT2A antagonism; type: cell-based; settings: read-out: Kb, antagonist of the 5-HT2A receptor
[6] = target: T4, [3H]-noradrenaline reuptake (NAT) (Rattus norvegicus, UniProt Q63380); assay: inhibition of [3H]-noradrenaline reuptake in rat synaptosomes; type: biochemical
T4 construct: from tissue
From the text: as §2, §3

[7] = test system: mice, formalin-injected hind paw; assay: formalin model of neuropathic pain; type: in vivo; settings: for time spent licking the injured paw, 0-5 minutes: first phase, vehicle 51; for time spent licking the injured paw, 20-30 minutes: second phase, vehicle 66
Protocol: There are several well validated animal models of neuropathic pain available for assess of antinociceptive potential of drugs. Among the most frequently used model are chronic constriction injury models (for example Bennett and Xie, Pain, 1988) and the capsaicin (Gilchrist et al., Pain 1996) and formalin [Neuropharm., 48, 252-263, 2005; Pain, 51, 5-17, 1992] models. […] In this model, mice receive an injection of formalin (4.5%, 20 μl) into the plantar surface of the left hind paw and are afterwards placed into individual glass beakers (2 l capacity) for observation. The irritation caused by the formalin injection elicits a characteristic biphasic behavioural response, as quantified by the amount of time spent licking the injured paw. The first phase (˜0-10 minutes) represents direct chemical irritation and nociception, whereas the second (˜20-30 minutes) is thought to represent pain of neuropathic origin. The two phases are separated by a quiescent period in which behaviour returns to normal. Measuring the amount of time spent licking the injured paw in the two phases assesses the effectiveness of test compounds to reduce the neuropathic-like pain response.

T2 sequence (P28223 whole entry): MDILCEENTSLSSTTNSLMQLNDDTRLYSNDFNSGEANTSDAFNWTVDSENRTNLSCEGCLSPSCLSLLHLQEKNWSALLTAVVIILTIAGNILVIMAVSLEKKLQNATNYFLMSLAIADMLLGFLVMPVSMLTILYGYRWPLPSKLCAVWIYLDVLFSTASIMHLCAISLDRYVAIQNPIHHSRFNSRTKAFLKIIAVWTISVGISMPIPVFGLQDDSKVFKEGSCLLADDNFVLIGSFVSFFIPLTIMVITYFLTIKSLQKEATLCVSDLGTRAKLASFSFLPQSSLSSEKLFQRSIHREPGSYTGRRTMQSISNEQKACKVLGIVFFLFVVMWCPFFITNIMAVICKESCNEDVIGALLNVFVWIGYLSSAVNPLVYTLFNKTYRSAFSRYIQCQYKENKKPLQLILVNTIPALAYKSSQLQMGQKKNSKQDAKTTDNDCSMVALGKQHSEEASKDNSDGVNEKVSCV
T3 sequence (P31652 whole entry): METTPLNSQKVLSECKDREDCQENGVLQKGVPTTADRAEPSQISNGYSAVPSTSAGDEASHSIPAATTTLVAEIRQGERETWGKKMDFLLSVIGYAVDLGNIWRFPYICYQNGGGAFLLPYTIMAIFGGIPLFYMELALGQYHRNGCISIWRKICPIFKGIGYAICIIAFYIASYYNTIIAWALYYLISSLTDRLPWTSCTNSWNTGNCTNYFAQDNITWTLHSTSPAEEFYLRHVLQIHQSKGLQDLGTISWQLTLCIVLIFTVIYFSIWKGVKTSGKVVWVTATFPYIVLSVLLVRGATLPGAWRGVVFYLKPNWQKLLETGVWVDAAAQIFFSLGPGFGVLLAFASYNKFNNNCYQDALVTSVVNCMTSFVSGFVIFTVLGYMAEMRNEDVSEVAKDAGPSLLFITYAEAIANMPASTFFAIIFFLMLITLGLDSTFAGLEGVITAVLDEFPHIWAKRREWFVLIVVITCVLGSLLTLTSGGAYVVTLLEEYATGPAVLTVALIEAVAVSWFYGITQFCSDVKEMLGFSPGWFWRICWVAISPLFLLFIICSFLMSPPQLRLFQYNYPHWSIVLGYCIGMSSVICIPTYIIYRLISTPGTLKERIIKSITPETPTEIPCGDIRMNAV
T4 sequence (Q63380 1-617): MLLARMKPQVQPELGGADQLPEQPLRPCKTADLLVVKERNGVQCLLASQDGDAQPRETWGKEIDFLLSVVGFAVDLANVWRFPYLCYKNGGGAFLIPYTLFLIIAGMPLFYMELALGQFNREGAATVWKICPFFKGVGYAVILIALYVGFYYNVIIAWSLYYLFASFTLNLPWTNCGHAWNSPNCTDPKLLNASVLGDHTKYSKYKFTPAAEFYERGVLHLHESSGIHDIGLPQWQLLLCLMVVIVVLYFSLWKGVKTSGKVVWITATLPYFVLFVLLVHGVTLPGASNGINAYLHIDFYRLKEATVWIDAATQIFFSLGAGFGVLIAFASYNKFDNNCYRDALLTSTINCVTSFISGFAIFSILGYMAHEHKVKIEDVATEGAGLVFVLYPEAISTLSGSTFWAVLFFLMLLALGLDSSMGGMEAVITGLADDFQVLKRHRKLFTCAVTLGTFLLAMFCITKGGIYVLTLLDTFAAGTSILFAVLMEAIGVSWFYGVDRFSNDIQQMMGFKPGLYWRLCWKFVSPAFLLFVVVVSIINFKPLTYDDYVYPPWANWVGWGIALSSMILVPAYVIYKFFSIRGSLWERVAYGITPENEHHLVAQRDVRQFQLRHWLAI

Cc1ccc(Sc2ccc(F)c(F)c2C2CCNCC2)c(F)c1 [compound I, 4-[2,3-difluoro-6-(2-fluoro-4-methyl-phenylsulfanyl)-phenyl]-piperidine]
Ki (5-HT2C receptor [1]): 4.9 nM | Ki (5-HT2A receptor [2]): 13 nM | Kb (5-HT2C receptor [3]): ~35 nM | IC50 [4]: 2.4 nM | Kb (5-HT2A receptor [5]): ~130 nM | IC50 [6]: 12 nM | time spent licking the injured paw, 0-5 minutes ([7]; 0.25 mg/kg s.c): 40 s | time spent licking the injured paw, 20-30 minutes ([7]; 0.25 mg/kg s.c): 48 s | time spent licking the injured paw, 0-5 minutes ([7]; 1 mg/kg s.c): 40 s | time spent licking the injured paw, 20-30 minutes ([7]; 1 mg/kg s.c): 21 s | time spent licking the injured paw, 0-5 minutes ([7]; 2.5 mg/kg s.c): 31 s | time spent licking the injured paw, 20-30 minutes ([7]; 2.5 mg/kg s.c): 7 s | effect in the first phase (direct chemical irritation and nociception) ([7]; 0.25-2.5 mg/kg s.c, in words): little effect | effect on time spent licking the injured paw in the second phase (neuropathic pain) ([7]; 0.25-2.5 mg/kg s.c, in words): clear and dose-dependent decrease
